The subject of one test is A549. The test is described as follows: MTS assay, A549. Format: cell-based. The conditions noted are these: Homo sapiens, 72 h, read-out: IC50 from MTS assay. The method, then: (§1) MTS assay was performed in determining the growth inhibition of cancer cells. MTS ((3-(4,5-dimethylthiazol-2-yl)-5-(3-carboxymethoxyphenyl)-2-(4-sulfophenyl)-2H-tetrazolium)), in the presence of phenazine methosulfate (PMS) and reductases, produces a formazan product that has an absorbance maximum at 490-500 nm. MTS assays (and closely related MTT assay) are commonly used to measure cell viabilities or survivals.
(§2) Briefly, KB/Hela, NCI-H460, A375, Colo205, HCT-116, U937, MCF-7, MDA-MB-231, A549, H1975 cells were seeded into 96-well plate at 4000, 4000, 2000, 2000, 2000 cells/well. After 24 h for attachment, test compound was added into each well and incubated for 72 h. A total of 20 μl of MTS reaction reagent containing the MTS (Promega, Madison, Wis.) and PMS in a ratio of 20:1 was added into each well to react with dehydrogenase enzyme in survival cells. After 3 h, the absorbance at 490 nm was monitored using Emax precision microplate reader (Molecular Devices, Sunnyvale, Calif.).
For orientation: Formazan colour is commonly taken as a measure of viable cells.

The test system of a further test is biotinylated tubulin. Put plainly: Colchicine competitive-binding assay. Particulars: at 10 μM concentration; 3H-colchicine; left column pair of Table 7.
The subject of a further test is A375. The test is described as follows: MTS assay, A375. Format: cell-based. The conditions noted are these: Homo sapiens, A-375, 72 h, read-out: IC50 from MTS assay. The method, then: as §1, §2
For another test, the system named is Colo205. The test is described as follows: MTS assay, Colo205. The conditions noted are these: Homo sapiens, COLO 205, 72 h, read-out: IC50 from MTS assay. Format: cell-based. The method, then: as §1, §2
The test system of a further test is U937. The test is described as follows: MTS assay, U937. Format: cell-based. Particulars: Homo sapiens, U-937, 72 h, read-out: IC50 from MTS assay. The protocol: as §1, §2
Another test relates to H1975. Put plainly: MTS assay, H1975. Format: cell-based. The conditions noted are these: Homo sapiens, NCI-H1975, 72 h, read-out: IC50 from MTS assay. The method, then: as §1, §2
Another test relates to porcine brain tubulin. Put plainly: Tubulin polymerization assay. In kind it is biochemical. Particulars: at 10 μM concentration. The method, then: In vitro tubulin polymerization assay was performed by using the Tubulin Polymerization Assay Kit (Cytoskeleton, Inc., Denver, Colo.) in a 96-well format, which used the polymerization of porcine brain tubulin in vitro in the presence of varying concentrations of the test compounds. Fluorescence measurements were obtained at 1-minute intervals over a 31-minute period. Fluorescent measurements were performed using excitation at 365 nm, and emission was measured at 440 nm using a Packard Fusion Alpha Microplate Analyzer. Data were analyzed as relative fluorescent units by GraphPad Prism 5 Demo.

Another test has as its system MDA-MB-231. Put plainly: MTS assay, MDA-MB-231. The conditions noted are these: Homo sapiens, 72 h, read-out: IC50 from MTS assay. In kind it is cell-based. The protocol: as §1, §2
In the next test the test system is KB cell. Put plainly: MTS assay, growth inhibition of KB cells. Format: cell-based. Particulars: Homo sapiens, at 10 μM concentration, incubated for 72 h, read-out: Inhibition rate (%) (growth inhibition rate of MTS assay). In a few lines: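 KB cells were allowed 24 h to attach before a 72 h exposure to compound at 10 μM. Viability was measured by MTS/PMS reduction, with absorbance read at 490 nm after 3 h. Values are reported as percent growth inhibition.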

Each structure is given as a SMILES string.

The results in this text go back to US8883793B2, “Tubulin inhibitors and methods of using the same” (Development Center for Biotechnology, priority 2010, dated 2014).

A word on the IC50: it is the concentration at which inhibition is half-maximal. Usually inhibition stands for the change of the read-out against control, counted positive when it falls. On to `COc1ccc(Sc2cnc(NC(=O)CCc3cccnc3)s2)cc1` [Compound 70, N-[5-(4-Methoxy-phenylsulfanyl)-thiazol-2-yl]-3-pyridin-3-yl-propionamide], for which the half-maximal inhibitory concentration (IC50) in the test with A549 came to 58 nM; in the test with A375, 34.6 nM; in the test on Colo205 it was 68.2 nM; with U937, 23.2 nM; with H1975 it was 141 nM; in the test on MDA-MB-231, 182 nM. In the test on biotinylated tubulin, the “binding rate (%) (colchicine competitive-binding)” value was determined as 92.9%. Besides, the “Inhibition rate (%) of tubulin polymerization” value with porcine brain tubulin was 59.6%. For the same compound, the inhibition at 10 µM with KB cell was determined as 78.5%.
